Measurements from ChEMBL document CHEMBL4622922, “Discovery of novel potent GPR40 agonists containing imidazo[1,2-a]pyridine core as antidiabetic agents” (Bioorg Med Chem, 2020).

Columns and labels:
[1] = target: Free fatty acid receptor 1 (Homo sapiens, UniProt O14842); assay: Agonist activity at GPR40 (unknown origin)
[2] = Hypoglycemic activity in normoglycemic ICR mouse assessed as blood glucose level at 30 mg/kg, po administered 30 mins prior to glucose challenge and measured at 1 hr post-compound administration by OGTT; format: ADME, organism-based; settings: in vivo
[3] = test system: Mus musculus; assay: Glucose lowering activity in po dosed normoglycemic ICR mouse assessed as suppression of blood glucose level administered for 30 mins followed by glucose challenge and measured upto 120 mins by OGTT; format: functional, organism-based
[4] = Hypoglycemic activity in normoglycemic ICR mouse at 90 mg/kg, po administered for 30 mins followed by glucose challenge and measured upto 120 mins by OGTT; format: ADME, organism-based; settings: in vivo
[5] = Hepatotoxicity in HFD fed/STZ-treated diabetic C57BL/6 mouse model assessed as increase in ALT level in blood at 30 mg/kg, po administered for 4 weeks; format: toxicity, organism-based; settings: in vivo, 672 h
[6] = Hepatotoxicity in HFD fed/STZ-treated diabetic C57BL/6 mouse model assessed as increase in AST level in blood at 30 mg/kg, po administered for 4 weeks; format: toxicity, organism-based; settings: in vivo, 672 h
[7] = Clearance in Sprague-Dawley rat at 10 mg/kg, po by LC-MS/MS analysis; format: ADME, organism-based; settings: in vivo
[8] = Cmax in Sprague-Dawley rat at 10 mg/kg, po by LC-MS/MS analysis; format: ADME, organism-based; set-up: dose 10 mg/kg, route oral; settings: in vivo
[9] = Tmax in Sprague-Dawley rat at 10 mg/kg, po by LC-MS/MS analysis; format: ADME, organism-based; settings: in vivo
[10] = AUC (0 to 24 hrs) in Sprague-Dawley rat at 10 mg/kg, po by LC-MS/MS analysis; format: ADME, organism-based; set-up: time < 24 hr, dose 10 mg/kg, route oral; settings: in vivo
[11] = Half life in Sprague-Dawley rat at 10 mg/kg, po by LC-MS/MS analysis; format: ADME, organism-based; settings: in vivo

Free fatty acid receptor 1, sequence (O14842 whole entry): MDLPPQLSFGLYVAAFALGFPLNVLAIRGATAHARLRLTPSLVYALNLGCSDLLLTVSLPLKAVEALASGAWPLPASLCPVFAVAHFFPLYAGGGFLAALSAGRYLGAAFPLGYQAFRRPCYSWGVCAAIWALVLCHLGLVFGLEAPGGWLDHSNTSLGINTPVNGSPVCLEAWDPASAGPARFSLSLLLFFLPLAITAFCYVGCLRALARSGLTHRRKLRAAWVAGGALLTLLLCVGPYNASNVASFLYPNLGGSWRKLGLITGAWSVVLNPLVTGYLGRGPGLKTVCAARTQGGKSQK

Compound	EC50 [1] [nM]	Activity [2]	Activity [5]	Activity [6]	other results
CC#CC(CC(=O)O)c1ccc(OCc2ccc3nc(-c4ccc(C)cc4C)cn3c2)cc1 (configuration not stated)	316	–	–	–	–
CC#CC(CC(=O)O)c1ccc(OCc2ccc3nc(-c4ccc(OC)cc4)cn3c2)cc1 (configuration not stated)	47	Non-Toxic	Non-Toxic	Non-Toxic	Activity [3]: Dose-dependent effect; Activity [4]: Non-Toxic; CL/F [7]: 0.454 mL/min/kg; Cmax [8]: 16300 ng/mL; Tmax [9]: 8.26 h; AUC(0-t) at 24 h [10]: 288 µg·h/mL; half-life [11]: 5.93 h
Cc1cc(OCCCS(C)(=O)=O)cc(C)c1-c1cccc(COc2ccc3c(c2)OC[C@H]3CC(=O)O)c1	–	–	Toxic	Toxic	–

Continued by falling EC50 [1], values first:

EC50 [1] [nM]	Compound	Activity [2]	Activity [5]	Activity [6]	other results
507	CC#CC(CC(=O)O)c1ccc(OCc2ccc3nc(-c4ccc(C)cc4)cn3c2)cc1 (configuration not stated)	–	–	–	–
231	CC#CC(CC(=O)O)c1ccc(OCc2ccn3cc(-c4ccccc4OCC)nc3c2)cc1 (configuration not stated)	Non-Toxic	–	–	–
